The assay has as its target T1, Dopamine beta hydroxylase (Homo sapiens, UniProt P09172).
T1 construct: 125 μl of plasma; tissue Instituto Português do Sangue Transplantação; host or cells: human plasma from healthy donors
T1 sequence (P09172 40-617 limits assumed): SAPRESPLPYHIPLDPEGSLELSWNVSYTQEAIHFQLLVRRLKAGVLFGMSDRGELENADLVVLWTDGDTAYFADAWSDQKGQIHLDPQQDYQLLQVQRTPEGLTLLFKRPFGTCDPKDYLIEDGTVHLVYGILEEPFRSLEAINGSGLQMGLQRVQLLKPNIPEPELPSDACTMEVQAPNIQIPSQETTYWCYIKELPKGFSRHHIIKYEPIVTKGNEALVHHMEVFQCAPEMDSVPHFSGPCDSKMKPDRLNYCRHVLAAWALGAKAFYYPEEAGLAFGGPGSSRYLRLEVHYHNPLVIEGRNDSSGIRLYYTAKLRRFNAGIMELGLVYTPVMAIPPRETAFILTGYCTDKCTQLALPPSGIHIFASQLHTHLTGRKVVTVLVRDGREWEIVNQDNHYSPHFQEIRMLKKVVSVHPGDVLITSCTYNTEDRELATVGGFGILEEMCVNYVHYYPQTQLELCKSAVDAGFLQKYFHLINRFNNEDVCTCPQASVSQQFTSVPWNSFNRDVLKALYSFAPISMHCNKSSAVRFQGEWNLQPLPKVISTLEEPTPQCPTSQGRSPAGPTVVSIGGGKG
The experiment in a line: Dopamine beta hydroxylase activity in human plasma. The following applies: for Plasma (0.1 μM), activity in % of control: inhibitor 0.1 μM; for Plasma (0.01 μM), activity in % of control: inhibitor 0.01 μM. The format is biochemical. The gist of the method: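 Octopamine production from tyramine over 45 min at 37° C, measured photometrically at 330 nm after SCX extraction and periodate oxidation against an octopamine standard curve, indicates plasma DβH activity. Compounds tested at final 10, 100 and 1000 nM in human plasma, pH 5.0 cofactor buffer, 10 min preincubation; results as % of control.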

Molecules are shown by their SMILES. Counter-ions that a name gives are not always drawn.

As to `Cl.Fc1ccc(Cl)cc1[C@]12C[C@H]1c1c(CCN3CCOCC3)[nH]c(=S)n1C2` [Example 174, (5aS,6aR)-5a-(5-chloro-2-fluorophenyl)-1-(2-morpholinoethyl)-5,5a,6,6a-tetrahydrocyclopropa[3,4]pyrrolo[1,2-c]imidazole-3(2H)-thione hydrochloride], the “Plasma (0.1 μM), activity in % of control” value was 52.7 % of control. Also, the “Plasma (1 μM), activity in % of control” value (inhibitor 1 μM) is given as 8.5 % of control.

For `F.Fc1ccc(Br)cc1[C@]12C[C@H]1c1c(CCN3CCOCC3)[nH]c(=S)n1C2` [Example 191, (5aS,6aR)-5a-(5-bromo-2-fluorophenyl)-1-(2-morpholinoethyl)-5,5a,6,6a-tetrahydrocyclopropa[3,4]pyrrolo[1,2-c]imidazole-3(2H)-thione hydrofluoride], the “Plasma (0.01 μM), activity in % of control” value was 82.3 % of control and the “Plasma (0.1 μM), activity in % of control” value is reported as 26.0 % of control.

As to `Fc1ccc(Br)c(F)c1[C@@H]1Cc2c(CCN3CCOCC3)[nH]c(=S)n2C1` [Example 195, (S)-6-(3-bromo-2,6-difluorophenyl)-1-(2-morpholinoethyl)-2,5,6,7-tetrahydro-3H-pyrrolo[1,2-c]imidazole-3-thione], the “Plasma (0.01 μM), activity in % of control” value was 77.3 % of control and the “Plasma (0.1 μM), activity in % of control” value is given as 41.7 % of control.

As for `Fc1cc(F)c(F)c([C@H]2Cc3c(CCCN4CCCC4)[nH]c(=S)n3C2)c1F` [Example 219, (R)-1-(3-(pyrrolidin-1-yl)propyl)-6-(2,3,5,6-tetrafluorophenyl)-2,5,6,7-tetrahydro-3H-pyrrolo[1,2-c]imidazole-3-thione hydrochloride], the “Plasma (0.01 μM), activity in % of control” value is listed as 69.9 % of control and the “Plasma (0.1 μM), activity in % of control” value is on record as 19.7 % of control.

On to `Cn1c(CC(=O)O)c2n(c1=S)C[C@@]1(c3c(F)ccc(Cl)c3F)C[C@@H]21` [Example 231, 2-((5aS,6aR)-5a-(3-chloro-2,6-difluorophenyl)-2-methyl-3-thioxo-2,3,5,5a,6,6a-hexahydrocyclopropa[3,4]pyrrolo[1,2-c]imidazol-1-yl)acetic Acid], for which the “Plasma (0.01 μM), activity in % of control” value was 35.9 % of control and the “Plasma (0.1 μM), activity in % of control” value was 5.6 % of control.

For `Cl.Cn1c(CCN[C@@H]2CCOC2)c2n(c1=S)C[C@H](c1c(F)ccc(Br)c1F)C2` [Example 256, (S)-6-(3-bromo-2,6-difluorophenyl)-2-methyl-1-(2-(((R)-tetrahydrofuran-3-yl)amino)ethyl)-2,5,6,7-tetrahydro-3H-pyrrolo[1,2-c]imidazole-3-thione hydrochloride], the “Plasma (0.01 μM), activity in % of control” value was 61.7 % of control and the “Plasma (0.1 μM), activity in % of control” value is 29.2 % of control.

Turning to `CN(C(=O)Cc1c2n(c(=S)n1C)C[C@@]1(c3c(F)ccc(Cl)c3F)C[C@@H]21)C1COC1` [Example 403, 2-((5aS,6aR)-5a-(3-chloro-2,6-difluorophenyl)-2-methyl-3-thioxo-2,3,5,5a,6,6a-hexahydrocyclopropa[3,4]pyrrolo[1,2-c]imidazol-1-yl)-N-methyl-N-(oxetan-3-yl)acetamide], the “Plasma (0.01 μM), activity in % of control” value is recorded as 29.9 % of control and the “Plasma (0.1 μM), activity in % of control” value is on record as 4.8 % of control.

The values are drawn from patent US11434242B2, “Dopamine-b-hydroxylase inhibitors” (BIAL-PORTELA & Cª, S.A., priority 2017, dated 2022).
